According to article PMC4935840, “Molecular basis of the remarkable species selectivity of an insecticidal sodium channel toxin from the African spider Augacephalus ezendami” (Scientific Reports, 2016):
“Also recorded” adds a separate entry of the source.

Legend:
[1] = tested on: American cockroaches (Periplaneta americana); settings: at much higher doses; cited from earlier work
From the text: (§1) An ideal bioinsecticide would be specific for the targeted insect pest, without harming beneficial insects. Although most spiders are generalist predators that hunt many types of insect prey, some spider-venom peptides have been isolated that are specific to certain insect orders or even to certain species within an insect order. […] Another ex ...

[2] = tested on: German cockroaches (Blattella germanica); settings: cited from earlier work
From the text: as §1

[3] = tested on: BgNaV1 over PaNaV1 channels; settings: cited from earlier work
From the text: The selectivity of Ae1a for BgNaV1 over PaNaV1 channels is reminiscent of the selectivity reported for the insecticidal spider-venom peptide μ-DGTX-Dc1a (Dc1a) isolated from the American desert spider Diguetia canities. In order to explore the molecular basis of this species selectivity we examined the ability of Ae1a to inhibit the activity of a BgNaV1 channel containing two mutations that were previously reported to determine sensitivity to Dc1a[18].

[4] = tested on: NaV channel currents in dorsal unpaired median (DUM) neurons (PaNaV1); assay: Whole-cell patch-clamp of NaV channel currents in DUM neurons; assay type: cell-based, Periplaneta americana; settings: P. americana DUM neurons
Protocol: Figure 5 Effect of rAe1a on NaV channel currents in P. americana DUM neurons. (A) Representative traces showing the effect of 1 μM rAe1a on INa mediated by PaNaV1 in P. americana DUM neurons. Currents were evoked by depolarizations to −10 mV, from a holding potential of −90 mV (panel B), with black and red traces corresponding to the current before, and 5 min after, toxin application, respectively. (C) Time course of rAe1a actions on PaNaV1. Peak INa were recorded at a rate of 0.1 Hz before (black circles), and for 5 min during, application of 1 μM rAe1a (red circles) and normalized against maximal peak INa (−1/Imax; n = 3). (D) GNa-V relationships in P. americana DUM neurons. A voltage protocol with depolarisation steps from −90 mV to +40 mV in 10 mV increments (lower panel B) was used to generate families of INa. The normalized conductance-voltage (GNa-V) relationship (G/Gmax) is shown before (black circles) and after (red circles) a 5 min perfusion with 1 μM rAe1a (n = 4). […]
Ionic currents were recorded from DUM neurons in voltage-clamp mode using the whole-cell patch-clamp technique employing version 10.2 of the pCLAMP data acquisition system (Molecular Devices, Sunnyvale, CA, USA). […] Liquid junction potentials were calculated using JPCALC, and all data were compensated for these values. […] Peak current amplitude was analysed offline using AxoGraph X v1.5.3 (Molecular Devices). […]

[5] = tested on: cotton bollworms (H. armigera larvae); assay: Injection into cotton bollworm larvae; assay type: in vivo, Helicoverpa armigera
Protocol: We examined the effect of rAe1a on cotton bollworms (i.e., larvae of H. armigera) supplied by AgBiTech (Glenvale, QLD, Australia). […] Larvae were kept on artificial diet (AgBiTech) in standard 6-well plates and their mass was measured 24, 48 and 72 h after the injection.

BgNaV1 = assay: Two-electrode voltage-clamp of BgNaV1 in Xenopus oocytes; assay type: cell-based, Blattella germanica
Protocol: (§2) Figure 4 Effect of rAe1a on BgNav1 and hNaV1.5. Left panels: Representative traces showing the effect of rAe1a (200 nM) on sodium currents mediated by (A) BgNaV1, (C) mutant BgNaV1 (H805Y/D812E), and (E) hNaV1.5 heterologously expressed in Xenopus oocytes. Currents were evoked by a depolarization to −15 mV, with black and red traces corresponding to the current before and after toxin application, respectively. Right panels: Effect of 200 nM rAe1a on normalized conductance-voltage (G–V) relationships (G/Gmax) and steady-state inactivation (SSI) relationships (I/Imax) for (B) BgNaV1, (D) mutant BgNaV1, and (F) hNaV1.5. […]
(§3) cRNA encoding BgNaV1 from Blattella germanica[50] and hNaV1.5 (Origene, Rockville, MD, USA) was synthesized using T7 polymerase (mMessage mMachine kit, Life Technologies, USA) after linearizing the fully-sequenced DNA. […] Oocytes were incubated at 17 °C in 96 mM NaCl, 2 mM KCl, 5 mM HEPES, 1 mM MgCl2 and 1.8 mM CaCl2, 50 μg/ml gentamycin, pH 7.6 with NaOH, and currents were measured 1–2 days after cRNA injection using the two-electrode voltage-clamp recording technique (OC-725C, Warner Instruments, Hamden, CT, USA) with a 150-μl recording chamber. […] After addition of rAe1a to the recording chamber, equilibration between toxin and channel was monitored using weak depolarizations elicited at 5-s intervals. […]

[6] = tested on: diamondback moth Plutella xylostella; assay: Injection into larvae of the diamondback moth (data not shown); assay type: in vivo; settings: injected into larvae of Plutella xylostella
[7] = tested on: fruit fly Drosophila melanogaster; assay: Screen of spider venoms / native peptide by injection into fruit flies; assay type: in vivo; settings: injected into D. melanogaster
Protocol: We used the fruit fly Drosophila melanogaster to rapidly screen spider venoms for insecticidal activity. […] Microinjection of venoms or toxins into D. melanogaster has the advantage that it requires only small volumes (50 nl per fly), which enables the study of scarce venoms from small venomous animals. Given the worldwide availability of Drosophila and the general sensitivity of flies towards spider toxins, this assay provides a convenient method for determining the insecticidal potency of venom compounds. However, as discussed below, it should not be used in isolation but rather as part of a taxonomically diverse screening protocol that aims to uncover potentially complex phyletic specificities.

[8] = tested on: fruit flies (Drosophila melanogaster); assay: Insecticidal activity by injection into fruit flies (PD50, LD50); assay type: in vivo; settings: D. melanogaster
Protocol: (§4) Figure 3 Insecticidal effects of Ae1a. (A) rAe1a was injected into blowflies (Lucilia cuprina) and paralytic effects were measured 0.5 and 1 h after injection. (B) rAe1a was injected into fruit flies (Drosophila melanogaster) and paralytic and lethal effects were measured at 3 h and 24 h post injection. (C) rAe1a and Hv1a were injected into the triatomine bug Rhodnius prolixus and lethality was measured 24 h after injection. PD50 and LD50 values were calculated as described previously.
The effect on rAe1a on fruit flies was determined using a previously described method. rAe1a was dissolved in 100 mM ammonium acetate buffer (pH 6.1) and injected into the lateral thoracic region of adult female D. melanogaster using a glass capillary connected with silicone tubing to a 10 ml plastic syringe. The injection volume per fruit fly was calibrated to be 50 nl for each glass capillary. After injection, fruit flies were housed in 68-ml plastic tubes (containing a cotton piece soaked in 0.5% sucrose solution) in groups of 10 (all receiving the same treatment) and monitored for signs of paralysis or lethality at 3 and 24 h post-injection.

hNaV1.5 = assay: Two-electrode voltage-clamp of hNaV1.5 in Xenopus oocytes; assay type: cell-based; settings: hNaV1.5 + human β1 in Xenopus oocytes, 200 nM, n = 3–5
Protocol: as §2, §3

[9] = tested on: mutant BgNaV1 (H805Y/D812E); assay: Two-electrode voltage-clamp of mutant BgNaV1 (H805Y/D812E) in Xenopus oocytes; assay type: cell-based, Blattella germanica; settings: BgNaV1 H805Y/D812E versus wild-type BgNaV1
Protocol: as §2, §3

[10] = tested on: triatomine bug Rhodnius prolixus; assay: Toxicity by injection into triatomine bugs; assay type: in vivo; settings: for activity against R. prolixus (in words): injection
Protocol: as §4
Toxicity against R. prolixus was measured using the method described by Luna et al.[49] with some modifications. Microinjection needles, made by pulling borosilicate glass capillaries with a needle puller (Narishige, PC-10, Japan), were fitted onto a Nanoject II auto injector (Drummond Scientific, Broomall, PA, USA). Ae1a, Hv1a, or PBS (n = 7–10 per dose, 138 nl volume) were injected into the thorax of second instar R. prolixus nymphs (average mass 1.4 mg) via articulation of prothoracic coxa. Synthetic Hv1a was kindly supplied by Vestaron Corporation (Kalamazoo, MI, USA). Three separate sets of experiments were performed for each compound. After injection, bugs were transferred to plastic cages and stored at 26 °C with 50% relative humidity. All bugs were checked at 24 h post-injection for signs of paralysis or lethality.

[11] = tested on: sheep blowflies (Lucilia cuprina); assay: Insecticidal activity by injection into sheep blowflies (PD50); assay type: in vivo
Protocol: as §4
rAe1a was dissolved in insect saline[45] and injected into the ventro-lateral thoracic region of adult sheep blowflies (L. cuprina; mass 26.8–29.7 mg) as described previously. A maximum of 2 μl was injected per fly using a 1.0 ml Terumo Insulin syringe with 29-gauge needle fitted to an Arnold hand micro-applicator (Burkard Manufacturing Co. Ltd., Rickmansworth, England). After injection, flies were individually housed in 2-ml tubes and paralytic effects determined after 0.5, 1 and 24 h. A total of three assays were performed, and for each assay nine doses of rAe1a (n = 10 flies per dose) and the appropriate control (insect saline; n = 20 flies each) were used. PD50 values were calculated as described.

honeybees = settings: cited from earlier work
From the text: as §1

[12] = tested on: wide range of insect pest species; settings: cited from earlier work
From the text: as §1

[13] = tested on: insect voltage-gated calcium channels; settings: cited from earlier work

μ-DGTX-Dc1a
adverse effects (in words) [1]: does not induce adverse effects
lethality (in words) [2]: lethal
selectivity for BgNaV1 over PaNaV1 (in words) [3]: selectivity

μ-theraphotoxin-Ae1a
effect on NaV channel currents in DUM neurons (in words) [4]: failed to significantly affect sodium currents; also recorded: no significant affect
adverse effects / resistance (in words) [5]: no adverse effects; also recorded: resistant
inhibition of BgNaV1 currents (in words) (BgNaV1): potently inhibits
lethality (in words) [6]: lethal
lethality / toxicity (in words) [7]: lethal
paralysis / lethality (in words) [8]: lethal; also recorded: irreversible paralysis leading to death; also recorded: highly sensitive
effect on hNaV1.5 currents and gating (in words) (hNaV1.5): completely inactive
sensitivity of mutant channel to toxin (in words) [9]: much less sensitive
activity against R. prolixus (in words) [10]: inactive
paralysis (in words) ([11]; L. cuprina): rapid but reversible paralysis; also recorded: reverses within 24 h
PD50 (summary value) ([11]; sheep blowflies, approximate value in discussion): ~ 950 pmol/g

ω-hexatoxin-Hv1a
activity against honeybees (in words) (honeybees): inactive
lethality (in words) [12]: lethal
calcium channel inhibition (in words) [13]: selective inhibitor
LD50 ([10]; R. prolixus second instar nymphs, injection into thorax, 24 h after injection, n = 7–10 per dose, three experiments): 147 ± 37 pmol/g
activity against R. prolixus (in words) [10]: highly susceptible
